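Tested at 5 concentrations; 48 h exposure; 96-well plates; endpoints linearly interpolated, else capped at highest concentration. The concentration for 50% growth inhibition is given as GI50.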 Calls of active or inactive are those of the source. No stated cut-off is given here; in the data, active = GI50 up to about 1.1 µM and inactive = higher.
What was measured:
Assay in all cases: NCI-60 cell line screen, 48 h
U-251 = tested on: U-251
NCI-H23 = tested on: NCI-H23
MDA-MB-435 = tested on: MDA-MB-435
HCC 2998 = tested on: HCC 2998
IGROV-1 = tested on: IGROV-1
OVCAR-8 = tested on: OVCAR-8
EKVX = tested on: EKVX
RPMI-8226 = tested on: RPMI-8226
NCI-H522 = tested on: NCI-H522
SK-MEL-5 = tested on: SK-MEL-5
DU-145 = tested on: DU-145
SW-620 = tested on: SW-620
Hs-578T = tested on: Hs-578T
NCI-H226 = tested on: NCI-H226
HT-29 = tested on: HT-29
NCI-H460 = tested on: NCI-H460
SNB-19 = tested on: SNB-19
SK-OV-3 = tested on: SK-OV-3
RXF 393 = tested on: RXF 393

Structure (SMILES)	GI50 (U-251)	GI50 (NCI-H23)	GI50 (MDA-MB-435)	GI50 (HCC 2998)	GI50 (IGROV-1)	GI50 (OVCAR-8)	GI50 (EKVX)	GI50 (RPMI-8226)	GI50 (NCI-H522)	GI50 (SK-MEL-5)	GI50 (DU-145)	GI50 (SW-620)	GI50 (Hs-578T)	GI50 (NCI-H226)	GI50 (HT-29)	GI50 (NCI-H460)	GI50 (SNB-19)	GI50 (SK-OV-3)	GI50 (RXF 393)
O=C1c2cc([N+](=O)[O-])cnc2S(=O)(=O)N1c1ccc(Br)cc1	> 100 µM (inactive)	> 100 µM (inactive)	> 100 µM (inactive)	> 100 µM (inactive)	> 100 µM (inactive)	> 100 µM (inactive)	> 100 µM (inactive)	> 100 µM (inactive)	> 100 µM (inactive)	> 100 µM (inactive)	> 100 µM (inactive)	> 100 µM (inactive)	> 100 µM (inactive)	> 100 µM (inactive)	> 100 µM (inactive)	> 100 µM (inactive)	> 100 µM (inactive)	> 100 µM (inactive)	–
Cc1ccc2c(c1)C(=O)/C(=C\c1ccc(Cl)cc1)CCS2(=O)=O	3.38 µM (inactive)	3.28 µM (inactive)	4.35 µM (inactive)	2.13 µM (inactive)	2.65 µM (inactive)	1.95 µM (inactive)	11.3 µM (inactive)	2.34 µM (inactive)	1.52 µM (inactive)	3.22 µM (inactive)	2.66 µM (inactive)	3.18 µM (inactive)	3.1 µM (inactive)	3.84 µM (inactive)	2.55 µM (inactive)	2.13 µM (inactive)	2.1 µM (inactive)	7.82 µM (inactive)	–
Cc1cccc2c1Oc1cc(Cl)ccc1C2NC(=O)CCN1CCCCC1 (configuration not stated)	15.6 µM (inactive)	19.1 µM (inactive)	16 µM (inactive)	15 µM (inactive)	> 10 µM (inactive)	16.3 µM (inactive)	20.7 µM (inactive)	25 µM (inactive)	16.9 µM (inactive)	14.9 µM (inactive)	> 10 µM (inactive)	17.8 µM (inactive)	–	–	12.6 µM (inactive)	16.5 µM (inactive)	17.5 µM (inactive)	–	–
CCOP(=O)(OCC)/C(=C\N1C(=O)CC(=O)NC1=S)C(=O)OC	> 100 µM (inactive)	> 100 µM (inactive)	> 100 µM (inactive)	> 100 µM (inactive)	> 100 µM (inactive)	> 100 µM (inactive)	> 100 µM (inactive)	–	–	> 100 µM (inactive)	> 100 µM (inactive)	> 100 µM (inactive)	–	> 100 µM (inactive)	> 100 µM (inactive)	> 100 µM (inactive)	> 100 µM (inactive)	> 100 µM (inactive)	> 100 µM (inactive)
N#CC(C(=O)c1cccnc1Cl)c1nc2cc(C(F)(F)F)ccc2s1 (configuration not stated)	78.3 µM (inactive)	30.8 µM (inactive)	47.2 µM (inactive)	–	> 100 µM (inactive)	> 100 µM (inactive)	64.9 µM (inactive)	41.6 µM (inactive)	19.8 µM (inactive)	> 100 µM (inactive)	> 100 µM (inactive)	47.1 µM (inactive)	–	44.2 µM (inactive)	28.3 µM (inactive)	59.6 µM (inactive)	77.3 µM (inactive)	62.7 µM (inactive)	42.3 µM (inactive)
CC1=NCC[N+]1(CCc1ccccc1)Cc1ccccc1 (configuration not stated)	29.3 µM (inactive)	19.8 µM (inactive)	–	35.7 µM (inactive)	17.3 µM (inactive)	37.3 µM (inactive)	> 100 µM (inactive)	13.7 µM (inactive)	11.6 µM (inactive)	14.7 µM (inactive)	> 100 µM (inactive)	> 100 µM (inactive)	16 µM (inactive)	65 µM (inactive)	12.5 µM (inactive)	34.8 µM (inactive)	71.9 µM (inactive)	> 100 µM (inactive)	> 100 µM (inactive)
COC(=O)[C@](C)(Cc1ccccc1)NC(=O)[C@@H](C)N1[C@@H](c2ccccc2)COC1(C)C	57.7 µM (inactive)	51.9 µM (inactive)	48.8 µM (inactive)	–	51.2 µM (inactive)	78.5 µM (inactive)	57.9 µM (inactive)	39.5 µM (inactive)	13.1 µM (inactive)	43.5 µM (inactive)	–	51.8 µM (inactive)	24.5 µM (inactive)	56.2 µM (inactive)	46.9 µM (inactive)	31 µM (inactive)	> 100 µM (inactive)	> 100 µM (inactive)	75.3 µM (inactive)
Cc1nc(N)c(N2CCN([N+](=O)[O-])CC2)c(O)n1	> 100 µM (inactive)	> 100 µM (inactive)	> 100 µM (inactive)	> 100 µM (inactive)	–	> 100 µM (inactive)	> 100 µM (inactive)	> 100 µM (inactive)	> 100 µM (inactive)	–	> 100 µM (inactive)	> 100 µM (inactive)	> 100 µM (inactive)	> 100 µM (inactive)	> 100 µM (inactive)	> 100 µM (inactive)	> 100 µM (inactive)	–	–
C=C1CC(COc2ccc3ccc(=O)oc3c2)(c2ccccc2)OC1=O (configuration not stated)	8.93 µM (inactive)	0.912 µM (active)	2.61 µM (inactive)	1.27 µM (inactive)	1.64 µM (inactive)	2.21 µM (inactive)	7.5 µM (inactive)	0.143 µM (active)	0.501 µM (active)	1.47 µM (inactive)	2.77 µM (inactive)	0.316 µM (active)	4.03 µM (inactive)	5.3 µM (inactive)	0.627 µM (active)	10.5 µM (inactive)	15 µM (inactive)	5.02 µM (inactive)	–
CC(=O)O[C@H]1CC[C@@]2(C)C(=CC[C@@H]3[C@@H]2CC[C@]2(C)NC(=O)/C(=C\c4ccccc4)C[C@@H]32)C1	18.1 µM (inactive)	15.9 µM (inactive)	14.8 µM (inactive)	21.3 µM (inactive)	21.4 µM (inactive)	20.5 µM (inactive)	14.9 µM (inactive)	12.3 µM (inactive)	15.6 µM (inactive)	10.8 µM (inactive)	15.9 µM (inactive)	20.2 µM (inactive)	–	18.3 µM (inactive)	15 µM (inactive)	26.9 µM (inactive)	16.1 µM (inactive)	20.9 µM (inactive)	13 µM (inactive)
COc1ccc(N2C(=O)C3c4[nH]c5c(C)cccc5c4C4CCC(c5ccccc5)CC4C3C2=O)cc1 (configuration not stated)	8.43 µM (inactive)	24.7 µM (inactive)	12.3 µM (inactive)	> 10 µM (inactive)	13.7 µM (inactive)	15.6 µM (inactive)	26.2 µM (inactive)	7.55 µM (inactive)	3.9 µM (inactive)	–	11.7 µM (inactive)	9.23 µM (inactive)	12.4 µM (inactive)	10.4 µM (inactive)	3.21 µM (inactive)	5.68 µM (inactive)	21.9 µM (inactive)	17.7 µM (inactive)	–
NC(=O)N/N=C1\C[C@H]2CCCC[C@H]2C1	> 100 µM (inactive)	–	> 100 µM (inactive)	> 100 µM (inactive)	> 100 µM (inactive)	83.4 µM (inactive)	> 100 µM (inactive)	> 100 µM (inactive)	> 100 µM (inactive)	> 100 µM (inactive)	> 100 µM (inactive)	> 100 µM (inactive)	> 100 µM (inactive)	> 100 µM (inactive)	> 100 µM (inactive)	> 100 µM (inactive)	84.7 µM (inactive)	> 100 µM (inactive)	–
Nc1nc2ccc(OCC(O)CN3CCCCC3)cc2[n+]([O-])n1 (configuration not stated)	> 100 µM (inactive)	> 100 µM (inactive)	> 100 µM (inactive)	> 100 µM (inactive)	–	> 100 µM (inactive)	–	> 100 µM (inactive)	> 100 µM (inactive)	> 100 µM (inactive)	> 100 µM (inactive)	> 100 µM (inactive)	–	> 100 µM (inactive)	> 100 µM (inactive)	> 100 µM (inactive)	> 100 µM (inactive)	–	> 100 µM (inactive)
COc1ccc2c(N=[N+]=[N-])c(-c3ccccc3)c(=O)oc2c1	–	24.5 µM (inactive)	45.8 µM (inactive)	92.3 µM (inactive)	> 100 µM (inactive)	77.1 µM (inactive)	39.8 µM (inactive)	20.8 µM (inactive)	26.1 µM (inactive)	25.5 µM (inactive)	65.6 µM (inactive)	> 100 µM (inactive)	> 100 µM (inactive)	–	32.1 µM (inactive)	49.3 µM (inactive)	–	76.6 µM (inactive)	–
CSc1nncc(-c2cc3c(c(SC)n2)CCC3)n1	25.9 µM (inactive)	> 100 µM (inactive)	> 100 µM (inactive)	–	2.4 µM (inactive)	24.4 µM (inactive)	> 100 µM (inactive)	> 100 µM (inactive)	28.8 µM (inactive)	> 100 µM (inactive)	> 100 µM (inactive)	82.4 µM (inactive)	–	> 100 µM (inactive)	> 100 µM (inactive)	–	> 100 µM (inactive)	> 100 µM (inactive)	> 100 µM (inactive)
CCOC(=O)N/N=C(\CC)OCC	–	–	–	> 100 µM (inactive)	> 100 µM (inactive)	> 100 µM (inactive)	> 100 µM (inactive)	–	> 100 µM (inactive)	> 100 µM (inactive)	> 100 µM (inactive)	–	> 100 µM (inactive)	–	–	> 100 µM (inactive)	> 100 µM (inactive)	> 100 µM (inactive)	> 100 µM (inactive)
Nc1ccc(S(=O)(=O)Nc2nnc(S(N)(=O)=O)s2)cc1	> 100 µM (inactive)	> 100 µM (inactive)	> 100 µM (inactive)	> 100 µM (inactive)	–	–	> 100 µM (inactive)	> 100 µM (inactive)	> 100 µM (inactive)	–	> 100 µM (inactive)	> 100 µM (inactive)	–	45.4 µM (inactive)	> 100 µM (inactive)	> 100 µM (inactive)	> 100 µM (inactive)	> 100 µM (inactive)	> 100 µM (inactive)

Reference: ChEMBL document CHEMBL1201862, “PubChem BioAssay data set” (2004)
